Source: patent US20230276803A1, “A PESTICIDALLY ACTIVE MIXTURE COMPRISING THIETANYLOXY COMPOUND, OXIDES OR SALTS THEREOF” (PI INDUSTRIES LTD., priority 2020, published 2023)

How the values were obtained:
Type in all cases: in vivo
[1] = tested on: Helicoverpa armigera; assay: Diet incorporation method against Helicoverpa armigera (Example A); settings: Helicoverpa armigera, 96 h, read-out: Observed Efficacy (%)
Description: (§1) In which E represents the expected percentage of inhibition of the pests for the combination of two insecticides or one insecticide and one fungicide at defined doses (for example equal to x and y respectively), x is the percentage of inhibition observed for the pest/disease by the compound (1) at a given dose (equal to x), y is the percentage of inhibition observed for the pest/disease by the compound (2) or (3) at a defined dose (equal to y). When the percentage of inhibition observed for the combination is greater than E, there is a synergistic effect.
The diet incorporation method was used, in which semi-synthetic diet was incorporated into the test solutions consisting either of the single compounds or respective compound combinations, when the temperature was approximately 50° C. in the bio-assay containers, then stirred thoroughly for proper mixing and allowed to cool for 30 min. The solidified diet was cut into equal pieces, and then each piece was transferred into one cell of a bio-assay tray. A single starved third instar larva was released into each of these cells of the bio-assay trays and the tray was covered with a lid. The bio-assay trays were kept under laboratory conditions at a temperature of 25° C. and relative humidity of 70%. Observations on dead, moribund and live larvae were recorded 96 h after the release of the larvae. Percent mortality was calculated by combining dead and moribund larvae and comparing the result to the one of the untreated control. The results are shown for the compound of formula (I-1) in Table A.

[2] = tested on: Plutella xylostella; assay: Leaf dip method (cabbage) against Plutella xylostella (Example C); settings: Plutella xylostella, foliar, 72 h, read-out: Observed Efficacy (%)
Description: as §1
The leaf dip method was used, wherein the required quantity of the compound or respective compound combinations were weighed and dissolved in a test solution prepared in tubes. The tubes were put on a vortex at 2000 rpm for 90 min for proper mixing and then diluted with a 0.01% Triton-X solution to the desired test concentration. Cabbage leaves were dipped into the solution for 10 seconds, shade dried for 20 min and then transferred to single cells of bioassay trays. A single second instar larva was released into each cell and the tray was covered with a lid. The bio-assay trays were kept under laboratory conditions at a temperature of 25° C. and relative humidity of 70%. Observations on dead, moribund and live larvae were recorded 72 h after the release. Percent mortality was calculated by combining dead and moribund larvae and comparing the result with the one of the untreated control. The results are shown for compound of formula (I-1) in Table C.

[3] = tested on: Alternaria solani; assay: Preventive glasshouse test against Alternaria solani in tomato (Example G); settings: preventive spray
Description: as §1
(§2) The single compounds or respective compound combinations were dissolved in 2% dimethyl sulfoxide/acetone and then mixed with water containing emulsifier to a calibrated spray volume of 50 mL. The test solutions were poured into spray bottles for further applications.
(§3) To test the preventive activity, healthy young tomato plants, raised in the greenhouse, were sprayed with the active compound preparation at the stated application rates inside the spray cabinets using hollow cone nozzles. One day after treatment, the plants were inoculated with a spore suspension containing 0.24×10^6 Alternaria solani inoculum and 2% Malt. The inoculated plants were then kept in a greenhouse chamber at a temperature of 22-24° C. and 90-95% relative humidity for disease expression.
(§4) A visual assessment of the performance of the single compounds or compound combinations was carried out by rating the disease severity (0-100% scale) on treated plants 3, 7, 10 and 15 days after application. Efficacy (% control) of the single compounds and mixtures was calculated by comparing the disease rating in the treatment with the one of the untreated control. The compounds were also assessed for their plant compatibility by recording symptoms like necrosis, chlorosis and stunting. The results have been described for the compound of formula (I-1) in Table G.

[4] = tested on: Phakopsora pachyrhizi; assay: Preventive glasshouse test against Phakopsora pachyrhizi in soybean (Example H); settings: preventive spray
Description: as §1
The single compounds or the respective compound combinations were dissolved in 2% dimethyl sulfoxide/acetone and then mixed with water containing an emulsifier to a calibrated spray volume of 50 ml. The test solutions were poured into spray bottles for further applications.
as §3, with “activity of compounds,” for “activity,”, “Soybean” for “tomato”, “a” for “a spore”, “2×10^5 Phakopsora pachyrhizi conidia.” for “0.24×10^6 Alternaria solani inoculum and 2% Malt.”, “80-90%” for “90-95%”
A visual assessment of the performance of the single compounds and respective compound combinations was carried out by rating the disease severity (0-100% scale) on treated plants 3, 7, 10 and 15 days after application. Efficacy (% control) of the compounds was calculated by comparing the disease rating in the treatment with the one of the untreated control. The compounds were also assessed for their plant compatibility by recording symptoms like necrosis, chlorosis and stunting. The results have been described for the compound of formula (I-1) in Table H.

[5] = tested on: Parastagonospora nodorum/Septoria nodorum/Stagnospora nodorum; assay: Preventive glasshouse test against Septoria nodorum in wheat (Example J); settings: 500 ppm, preventive spray
Description: as §1, §2
[…] One day after treatment, the plants were inoculated with a spore suspension containing 2.8×10^6 Stagnospora nodorum inoculum.
The inoculated plants were then kept in a greenhouse chamber at 22-25° C. temperature and 90-100% relative humidity for disease expression.
as §4, with “J.” for “G.”

[6] = tested on: Erysiphe cichoracearum; assay: Preventive glasshouse test against Erysiphe cichoracearum in cucumber (Example K); settings: 500 ppm, preventive spray
Description: as §1
The single compounds or the respective compound combinations were dissolved in 2% dimethyl sulfoxide/acetone and then mixed with water containing emulsifier to a calibrated spray volume of 50 mL. The test solutions were poured into spray bottles for further applications. […]
A visual assessment of the performance of the compounds and the respective compound combinations was carried out by rating the disease severity (0-100% scale) on treated plants 3, 7, 10 and 15 days after application. Efficacy (% control) of the single compounds or compound combinations was calculated by comparing the disease rating in the treatment with the one of the untreated control. The compounds were also assessed for their plant compatibility by recording symptoms like necrosis, chlorosis and stunting. […]

## Cc1cc(Cl)cc(C(=O)NC(C)(C)C)c1NC(=O)c1cc(OC2CS(=O)(=O)C2)nn1-c1ncccc1Cl [Compound (I-1), N-(2-(tert-butylcarbamoyl)-4-chloro-6-methylphenyl)-1-(3-chloropyridin-2-yl)-3-((1,1-dioxidothietan-3-yl)oxy)-1H-pyrazole-5-carboxamide]
[1]; 0.1 ppm
  pest or weed control at 0.1 ppm: 12.5%
[1]; 0.41 ppm
  pest or weed control at 0.41 ppm: 50%
[1]; 1 ppm
  pest or weed control at 1 ppm: 25%
[2]; 0.0025 ppm
  pest or weed control at 0.0025 ppm: 0%
[2]; 0.004 ppm
  pest or weed control at 0.004 ppm: 0%
[2]; 0.005 ppm
  pest or weed control at 0.005 ppm: 0%
[2]; 0.02 ppm
  pest or weed control at 0.02 ppm: 12.5%
[2]; 0.03 ppm
  pest or weed control at 0.03 ppm: 12.5%
[2]; 0.05 ppm
  pest or weed control at 0.05 ppm: 12.5%
[2]; 0.1 ppm
  pest or weed control at 0.1 ppm: 12.5%
[2]; 0.5 ppm
  pest or weed control at 0.5 ppm: 25%
[3]; 100 ppm
  Observed Efficacy (%): 14%
[3]; 500 ppm
  Observed Efficacy (%): 16%
[4]; 100 ppm
  Observed Efficacy (%): 44%
[4]; 500 ppm
  Observed Efficacy (%): 47%
[5]
  Observed Efficacy (%): 37%
[6]
  Observed Efficacy (%): 28%
